Consider six compounds from ChEMBL document CHEMBL1128631, “Photoinduced electron transfer for pyrenesulfonamide conjugates of tryptophan-containing peptides. Mitigation of fluoroprobe behavior in N-terminal labeling experiments” (Bioorg Med Chem Lett, 1995).

Holding throughout (format): ADME
The nature of data set [1]: Half-life time was measured in the presence of methyl cyanide solvent.
Data set [2] is described as follows: Life-time was measured in the presence of methyl cyanide solvent (t = weighted average of two lifetimes from biexponential decay).
A short description of data set [3]: Life-time was measured in the presence of DMF solvent (t = weighted average of two lifetimes from biexponential decay).

As for `CCOC(=O)[C@H](Cc1c[nH]c2ccccc12)NC(=O)[C@H](C)NS(=O)(=O)c1ccc2ccc3ccc([N+](=O)[O-])c4ccc1c2c34`, the T1/2 in data set [1] is reported as 0.4 us.
Turning to `CCOC(=O)[C@H](Cc1c[nH]c2ccccc12)NC(=O)[C@H](C)NS(=O)(=O)c1ccc2ccc3cccc4ccc1c2c34`, the values for the t in data set [2] and in data set [3] were 0.76 ns and 0.5 ns, respectively.
For the compound `CCOC(=O)[C@H](Cc1c[nH]c2ccccc12)NC(=O)[C@H](C)NC(=O)[C@H](C)NS(=O)(=O)c1ccc2ccc3ccc([N+](=O)[O-])c4ccc1c2c34`, in data set [1], the T1/2 turned out to be 0.16 us.
For the compound `CCOC(=O)[C@H](Cc1c[nH]c2ccccc12)NC(=O)[C@H](C)NC(=O)[C@H](C)NS(=O)(=O)c1ccc2ccc3cccc4ccc1c2c34`, the t was 3.1 ns in data set [2] and 1.3 ns in data set [3].
Consider `CCOC(=O)[C@H](C)NS(=O)(=O)c1ccc2ccc3ccc([N+](=O)[O-])c4ccc1c2c34`, for which, in data set [1], the T1/2 amounted to 12 us.
Turning to `CCOC(=O)[C@H](Cc1c[nH]c2ccccc12)NS(=O)(=O)c1ccc2ccc3cccc4ccc1c2c34`, the t in data set [2] worked out at 0.79 ns; in data set [3], 0.32 ns.
